Data on one compound can be found in patent US6133279A, “Therapeutic agents for renal diseases and organ preservatives” (Chugai Seiyaku Kabushiki Kaisha, priority 1996, dated 2000).

Read-outs that look alike come from different tables or passages of the source.

For assay [1], the system named is porcine kidney-derived LLC-PK1 cells. As to the kind of experiment: Protective effect against oxidized LDL-induced injury of porcine kidney-derived LLC-PK1 cells (1). The class given is cell-based. The conditions noted are these: Sus scrofa, LLC-PK1, 6 h, mean ± standard deviation, read-out: Cytoprotection rate (%). Here is the method: For the purpose of evaluating in vitro cytoprotective effect of the compounds of the present invention, a cytoprotective study was performed using porcine kidney-derived LLC-PK1 cells (ATCC-CRL-13921) injured by oxidized low-density lipoprotein (oxidized LDL).
Oxidized LDL was prepared by incubating 1 mg/ml of rabbit LDL in PBS (-) in the presence of 10 μM CuSO4 at 37° C. for 24 hours. Cell culture was carried out by plating 1.25×10^4 cells/250 μl/well on a 48-well plate containing M199 medium containing 3% FBS. Test compounds were dissolved or suspended in ethanol and added to the wells in an amount of 1.25 μl/well to a concentration of 0.1, 1 or 10 μM in each well. After 16 hours or immediately after the addition of the compounds, oxidized LDL was added to the wells. Probucol, α-tocopherol and Trolox which is a water-soluble analogue of α-tocopherol were used as reference control compounds. Oxidized LDL was diluted twice with saline and then added to the wells in an amount of 62.5 μl/well to a concentration of 100 μg/ml and the cells were cultured for 6 hours after addition of the oxidized LDL. Then, 162.5 μl/well of the culture medium were collected and measured for the lactate dehydrogenase (LDH) level (LD-L: SIGNA DIAGNOSTICS) having leaked into the medium.
The magnitude of cytoprotective effect was expressed as the cytoprotection rate which was determined by calculating the data assuming that the magnitude in wells containing oxidized LDL is 0% and that the magnitude in wells containing saline is 100%.

The test system of assay [2] is ischemic acute renal failure model. Kind of assay: Ischemic acute renal failure model, renal ischemia 60 minutes (in vivo). The conditions noted are these: 200 mg/kg oral once a day. Also noted: species or system rat (male SD rats). Here is the method: Effect of a compound of the present invention on an in vivo renal disease was studied using an ischemic acute renal failure model.
An ischemic acute renal failure model was prepared from in groups of 8 each rats (male SD rats, weight: 224-285 g) fed with high-fat diet. High-fat diet feeding was started by free access to high-fat diet (cholesterol level 1.25%) from 7 or 8 days prior to unilateral nephrectomy and left renal artery clamping. The test compound was administered as a solution in soybean oil via oral route (4 ml/kg). Control group was orally administered soybean oil alone. The administration of compound was started from 4 or 5 days before the ischemic treatment at a dose of 200 mg/kg once a day. After the ischemia treatment, the oral administration of the compound was continued at a frequency of once a day. The ischemic treatment was performed by removing the right kidney and clipping a renal artery of the left kidney for 30 or 60 minutes.
Renal functions after ischemic treatment were determined by using urine and blood samples daily collected. Urine volume and the creatinine level of serum and urine were evaluated to calculate creatinine clearance as an indication of renal functions. Influences of high-fat diet feeding were monitored by measuring serum cholesterol level.

Assay [3] deals with puromycin-induced nephrosis model. As to the kind of experiment: Puromycin-induced nephrosis (2), postadministration (in vivo). The note with it: 200 mg/kg oral once a day from the day following puromycin. Also noted: species or system rat (male SD rats). Here is the method: Effect of the compounds of the present invention on an in vivo renal disease was studied using a puromycin-induced nephrosis model. A puromycin-induced renal failure model was prepared from rats in groups of 5-8 each (6 week-old male SD rats) fed with high-fat diet. High-fat diet feeding was started by free access to high-fat diet (cholesterol level 1.25%) from 7 days before puromycin treatment. Puromycin (puromycin aminonucleoside, SIGMA Chemical Co.) treatment was performed by intraperitoneal administration at a dose of 100 mg/kg. Test compounds were administered as a solution in soybean oil via oral route (4 ml/kg). Control group was orally administered soybean oil alone. Probucol and a water-soluble α-tocopherol analogue, Trolox, were used as reference control compounds. The compounds were orally administered once a day from the following day of the puromycin treatment. Renal functions were determined by using urine and blood samples. The volume of urine, urea nitrogen level and creatinine levels of serum and urine were evaluated to calculate creatinine clearance as an indication of renal functions.

The test system is the same in assay [4]. As to the kind of experiment: Puromycin-induced nephrosis (1), preadministration (in vivo). Also noted: species or system rat (male SD rats). The conditions noted are these: day 8; for Creatinine clearance: control 576 ± 148; for Creatinine: serum, control 0.93 ± 0.21. Here is the method: Effect of the compound of the present invention on an in vivo renal disease was studied using a puromycin-induced nephrosis model.
A puromycin-induced renal failure model was prepared from rats in groups of 5-8 each (6 week-old male SD rats) fed with high-fat diet. High-fat diet feeding was started by free access to high-fat diet (cholesterol level 1.25%) from 7 days before puromycin treatment. Puromycin (puromycin aminonucleoside, SIGMA Chemical Co.) treatment was performed by intraperitoneal administration at a dose of 100 mg/kg. The test compound was administered as a solution in soybean oil via oral route (4 ml/kg). Control group was orally administered soybean oil alone. The administration of compound was started from 3 days before the puromycin treatment once a day. After the puromycin treatment, the oral administration of the compound was continued.
Renal functions were determined by using urine and blood samples collected on day 8 after the puromycin treatment. Volume of urine and the creatinine levels in serum and urine were evaluated to calculate creatinine clearance as an indication of renal functions.

Setting [5] is: compound added 16 hours before adding oxidized LDL.
[6] abbreviates: compound added immediately before adding oxidized LDL.
Setting [7] is: 20 mg/kg oral once a day from 3 days before puromycin.
Setting [8] is: 200 mg/kg oral once a day from 3 days before puromycin, P < 0.05.

`CCCCCC1(CCCCC)Cc2c(cc(C(C)(C)C)c(O)c2C(C)(C)C)O1` [Example 36, 4,6-Di-t-butyl-2,2-di-n-pentyl-5-hydroxy-2,3-dihydrobenzofuran]: the figures for the inhibition at 0.1 µM in assay [1] (setting [5]) and in assay [1] (setting [6]) were -1 ± 7.4% and -3.2 ± 1.1%, respectively. Besides, the inhibition at 1 µM was 92.2 ± 3.7% in assay [1] (setting [5]) and 0.6% in assay [1] (setting [6]). Also, the inhibition at 10 µM in assay [1] (setting [5]) came out at 97.7 ± 1.1%; in assay [1] (setting [6]) it was 78.8 ± 3.6%. The “Creatinine” value was 2.81 ± 0.42 mg/dL in assay [2] (1 day after ischemia (60 minutes), control 3.89 ± 0.77, P < 0.01); 1.94 ± 0.30 mg/dL in assay [2] (2 days after ischemia (60 minutes), control 3.33 ± 1.90); 1.86 ± 0.27 mg/dL in assay [2] (3 days after ischemia (60 minutes), control 3.19 ± 2.19); 0.75 ± 0.11 mg/dL in assay [3] (control 0.82 ± 0.07); 0.71 ± 0.14 mg/dL in assay [4] (setting [7]); 0.59 ± 0.23 mg/dL in assay [4] (setting [8]). Besides, the “Creatinine clearance” value in assay [2] (1 day after ischemia (60 minutes), control 276 ± 118, P < 0.05) came out at 478 ± 171 mL/day; in assay [2] (2 days after ischemia (60 minutes), control 363 ± 140, P < 0.01), 594 ± 123 mL/day; in assay [3] (control 824 ± 108), 837 ± 205 mL/day; in assay [4] (setting [7]) it was 724 ± 176 mL/day; in assay [4] (setting [8]), 1055 ± 482 mL/day. For the same compound, the “Urine nitrogen” value in assay [3] (control 30.74 ± 10.95) is 24.57 ± 10.68 mg/dL.
